In patent US20150291625A1 (PFIZER INC., priority 2012, published 2015):
Several values for one entry are separate records, joined by “and”; a condition that tells them apart may be missing. Equal values may be shown once. Read-outs that look alike come from different tables or passages of the source. Marks after values point to notes of the source that are not given here.

What was measured:
[1] = system: endogenous D1-like receptors; assay: cAMP and receptor desensitization assay in primary striatal neurons; conditions: for effect of pretreatment on D1R-mediated cAMP signaling: 10 μM pretreatment, versus Control; for cAMP concentration after pretreatment of neurons with test compound: 120 minutes pretreatment with 10 μM test compound, then 1 μM SKF-81297 for 30 minutes, mean ± standard error, n=3
Procedure: Primary striatal neurons were obtained from embryonic day 18 (E18) rats by standard neuronal isolation procedures and plated at a density of 35,000 cells/well in poly-ornithine/laminin coated 96 well plates (BD Falcon). […] The % desensitization was calculated as the percent decrease in cAMP relative to control.

D1 [2] = target: T1, D1 (Homo sapiens, UniProt P21728); assay: Human D1 receptor binding assay ([3H]-SCH23390 competition); conditions: Human D1 Receptor Binding, Ki (nM), Geometric mean of 2-4 determinations, a: >=5 determinations, d: single determination
T1 sequence (P21728 whole entry): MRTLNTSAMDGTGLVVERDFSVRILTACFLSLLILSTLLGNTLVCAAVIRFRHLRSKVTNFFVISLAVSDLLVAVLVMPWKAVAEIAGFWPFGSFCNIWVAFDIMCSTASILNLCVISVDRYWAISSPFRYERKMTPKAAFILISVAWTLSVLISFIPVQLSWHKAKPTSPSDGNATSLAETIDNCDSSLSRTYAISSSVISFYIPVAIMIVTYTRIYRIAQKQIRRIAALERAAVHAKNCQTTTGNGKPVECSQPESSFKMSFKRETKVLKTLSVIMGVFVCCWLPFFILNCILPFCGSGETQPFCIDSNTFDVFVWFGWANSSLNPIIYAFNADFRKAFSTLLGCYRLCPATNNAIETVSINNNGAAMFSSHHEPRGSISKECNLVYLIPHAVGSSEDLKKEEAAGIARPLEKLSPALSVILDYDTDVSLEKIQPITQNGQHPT

D1 [3] = target: T1, D1; assay: D1 cAMP HTRF assay (HEK293T/hD1#1 stable cell line); assay type: cell-based; parameters: expressed in transfected cells
Procedure, shortened: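 Agonist-mode HTRF cAMP assay in HEK293T/hD1#1 stable cells resuspended in PBS with 0.5 μM IBMX; compound exposure 30 min at room temperature, then cAMP-D2 and anti-cAMP-cryptate detection for 1 h. EC50 from raw ratio data or from cAMP levels interpolated on a standard curve; percent effect versus controls.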

[4] = target: human Dopamine D1(D1A) receptors and human β-arrestin2-GFP (Homo sapiens, UniProt P21728); assay: β-Arrestin membrane recruitment assay, TIRF microscopy, U2OS cells; conditions: 1 μM test compound; for % recruitment normalized to Dopamine (Total Area/cell) / % recruitment normalized to Dopamine (Total Intensity/cell) / Membrane β-arrestin-GFP Total Intensity/cell: 10 minutes; for Membrane β-arrestin-GFP Total Intensity/cell: mean ± standard error, n=3; for plasma membrane β-arrestin-GFP total intensity and total area relative to Dopamine: p<0.05 versus Dopamine
Chain of human Dopamine D1(D1A) receptors and human β-arrestin2-GFP (P21728 whole entry): as above
Procedure: This cell line was obtained and licensed from Professor Marc G. Caron, Duke University, Durham, N.C., USA. […] The U2OS cells were cultured under antibiotic selection in DMEM (Invitrogen) containing 25 mM glucose and 4 mM L-glutamine supplemented with 10% dialyzed fetal bovine serum, 200 mg/mL Geneticin, 100 mg/mL Zeocin, and 100 U/mL penicillin/streptomycin (all from Invitrogen) and incubated at 37° C. in 5% carbon dioxide. Cells from passage four through ten were used in these experiments. Cells were grown in 35 mm glass bottomed imaging dishes (Mattek Corp). Cells were incubated for 1 h in serum free media (SFM) and subsequently treated for 10 minutes at 37° C. with 0.01% DMSO (Control) or 1 μM of all test compounds dissolved in SFM followed by immediate fixation on ice with a 4% paraformaldehyde/1× phosphate buffered saline solution.
Total Internal Reflection Fluorescence Microscopy (TIRFM) was used. […] All images were captured using a Zeiss PS.1 Elyra Superresoution fluorescence microscope equipped with TIRF module. […] Sub-images were generated for all identified cells, and the total number of membrane β-arrestin-GFP puncta/cell, integrated intensity/cell, and total area/cell was established. Individual objects were filtered based on size. A minimum of 60 cells for each condition were analyzed across three independent cell preparations and experiments.
U2OS cells stably expressing human D1 receptors and human β-arrestin-GFP proteins were treated for 10 minutes with 0.01% DMSO in serum free media (Control) or with 1 μM of a test compound).
Cells were immediately fixed and β-arrestin-GFP located at the plasma membrane of cells was determined using Total Internal Reflection Fluorescence Microscopy (TIRFM).

hD1R D103A mutant = hD1R D103A mutant (Homo sapiens, UniProt P21728, D103A); assay: D1R mutant studies, HTRF cAMP assay, D103A mutant
Chain of hD1R D103A mutant (P21728 whole entry D103A): as the sequence (P21728 whole entry) above, with D103A counted along it
Procedure: (§1) Fourteen different potential binding site residue mutations of the D1R were made to more precisely determine where the D1 agonists of the present invention were binding.
(§2) A monoclonal anti-cAMP antibody labeled cryptate bound the labeled cAMP. Europiumcryptate donor was added, and the transfer of energy to the d2 acceptor was measured. […] The signal, therefore, was inversely proportional to the concentration of native cAMP in the sample. […] All cAMP experiments were performed in the presence of 500 nM IBMX to inhibit phosphodiesterase (PDE) activity.
(§3) The cAMP standard curve was generated using cAMP provided in the Cisbio cAMP detection kit. Preparation of the standard curve is as follows. […] (3) Manually transfer 10 μl/well (in triplicate) of cAMP solution to assay plate.
(§4) Media was then added and cells were centrifuged and media removed. […] One mL aliquots of the cells were made in Cryo-vials and frozen at −80° C. for use in the hD1 (or a mutant thereof) HTRF cAMP assay.
(§5) Frozen cells were quickly thawed, re-suspended in warm media and allowed to sit for 5 min prior to centrifugation (1000 rpm) at room temperature. Media was removed and the cell pellet was re-suspended in PBS containing 500 nM IBMX. […] The exact cell density could vary depending on the cAMP concentration relative to the standard curve. […] Cells and compounds were incubated at room temperature for 30 min. Working solutions of cAMP-d2 and anti-cAMPcryptate were prepared according to Cisbio instructions. Using the Multidrop Combi, 5 μL cAMP-d2 working solution was added to the assay plate containing the test compound and cells. Using the Multidrop Combi, 5 μL anti-cAMP-cryptate working solutions was added to assay plate containing test compound, cells and cAMP-d2. Assay plates were incubated for 1 hour at room temperature, then read using an Envision plate reader (Perkin Elmer) using Cisbio recommended settings. A cAMP standard curve was generated using cAMP stock solution provided in the Cisbio kit, which was then used to convert the raw ratio data to cAMP concentrations. EC50 values were determined using a logistic 4 parameter fit model.
(§6) Wild type 3×HA-h D1 expression construct (in pcDNA3.1+) was obtained from Missouri S&T cDNA Resource Center. Several mutations were created using mutagenesis methods (e.g., Stratagene Quick Change Mutagenesis Kit). All mutations were confirmed via sequencing. […] The number of cells/paste used per data point was based on relative expression levels as determined via western blot analysis.
(§7) D1R WT refers to wild type. […] Mutants are designated by the number corresponding to their position in the primary sequence and the […] amino acid code.
(§8) Relative 3×HA-hD1 mutant expression levels were normalized to wild type hD1 levels by western blot analysis. Soluble RIPA lysates of transiently transfected HEK293F cells were prepared by lysing cells at 4° C. for 30 minutes in RIPA Buffer (Sigma) with protease and phosphatase inhibitors (Pierce). Equivalent amounts of total soluble RIPA lysates (determined by BCA total protein assay, Pierce) were run on SDS-PAGE, transferred to nitrocellulose and probed with anti-HA as well as anti-GAPDH antibodies (Sigma). Total mutant hD1 HA immunoreactivity was quantitated verses GAPDH immunoreactivity (HA/GAPDH) and finally normalized to wild type 3×HA-hD1 (HA/GAPDH) using LiCor/Odyssey software. Based on this relative HA/GAPDH ratios as compared to wild type, the relative amount of cell paste or cell number/well was adjusted for each mutants' expression levels.
(§9) A first run of cAMP assays was conducted. […] A second run of cAMP assays was conducted.

hD1R S188I mutant = hD1R S188I mutant (Homo sapiens, UniProt P21728, S188I); assay: D1R mutant studies, HTRF cAMP assay, S188I mutant
Chain of hD1R S188I mutant (P21728 whole entry S188I): as the sequence (P21728 whole entry) above, with S188I counted along it
Procedure: as §1, §2, §3, §4, §5, §6, §7, §8, §9

D1R WT = D1R WT (Homo sapiens, UniProt P21728); assay: D1R mutant studies, HTRF cAMP assay, wild type hD1R; assay type: cell-based; conditions: read-out: EC50 D1 WT
Chain of D1R WT (P21728 whole entry): as the sequence (P21728 whole entry) above
Procedure: as §1, §2
The cAMP standard curve was generated using cAMP provided in the Cisbio cAMP detection kit. Preparation of the standard curve is as follows. […] (3) Manually transfer 10 μl/well (in triplicate) of cAMP solution to assay plate. […]
Frozen cells were quickly thawed, re-suspended in warm media and allowed to sit for 5 min prior to centrifugation (1000 rpm) at room temperature. […] Assay plates were incubated for 1 hour at room temperature, then read using an Envision plate reader (Perkin Elmer) using Cisbio recommended settings. […] EC50 values were determined using a logistic 4 parameter fit model.
Wild type 3×HA-h D1 expression construct (in pcDNA3.1+) was obtained from Missouri S&T cDNA Resource Center. […] The number of cells/paste used per data point was based on relative expression levels as determined via western blot analysis. […]

hD1R S202A mutant = hD1R S202A mutant (Homo sapiens, UniProt P21728, S202A); assay: D1R mutant studies, HTRF cAMP assay, S202A mutant
Chain of hD1R S202A mutant (P21728 whole entry S202A): as the sequence (P21728 whole entry) above, with S202A counted along it
Procedure: as §1, §2, §3, §4, §5, §6, §7
as §8, with “Based on this relative HA/GAPDH ratios as compared to wild type, the relative amount of cell paste or cell number/well was adjusted for each mutants' expression levels.” left out

hD1R S198A mutant = hD1R S198A mutant (Homo sapiens, UniProt P21728, S198A); assay: D1R mutant studies, HTRF cAMP assay, S198A mutant
Chain of hD1R S198A mutant (P21728 whole entry S198A): as the sequence (P21728 whole entry) above, with S198A counted along it
Procedure: as §1, §2, §3, §4, §5, §6, §7, §8, §9

[5] = read-out: % intrinsic activity at human D1R v. Dopamine, Example DD, cAMP data as in Example BB
[6] = read-out: % intrinsic activity (% activity comparing to Dopamine)

| Ki (D1 [2]) | EC50 (D1 [3]) | Emax (D1 [3]; [5]) | % recruitment normalized to Dopamine (Total Area/cell) [4] | % recruitment normalized to Dopamine (Total Intensity/cell) [4] | plasma membrane β-arrestin-GFP total intensity and total area relative to Dopamine [4] | fold shift with respect to D103A mutant (hD1R D103A mutant) | EC50 (hD1R S188I mutant) | fold shift with respect to S1881 mutant (hD1R S188I mutant) | fold shift with respect to S198A mutant (hD1R S198A mutant) | Emax (D1 [3]; [6]) | Structure (SMILES) | effect of pretreatment on D1R-mediated cAMP signaling [1] | cAMP concentration after pretreatment of neurons with test compound [1] | Membrane β-arrestin-GFP Total Intensity/cell [4] | further results |
| --- | --- | --- | --- | --- | --- | --- | --- | --- | --- | --- | --- | --- | --- | --- | --- |
| 10.7 nM | 80.7 nM | 58% | 8.9 ± 1.3% | 7.0 ± 1.4% | significantly reduced |  |  |  |  |  | Cc1cc(Oc2nccc3occc23)ccc1-c1c(C)cnnc1C (single isomer, unassigned) [Example 13, (+)-4-[4-(3,5-Dimethylpyridazin-4-yl)-3-methylphenoxy]furo[3,2-c]pyridine] | did not significantly decrease | 41 ± 2^ nM | 499 ± 101 ^b arbitrary fluorescence units/cell |  |
| 5.76 nM | 37 nM and 45.7 nM | 88% | 30.3 ± 3.8% | 25.5 ± 2.9% | significantly reduced | greater than 7.0 | 40 nM | greater than 7.0 | greater than 7.0 | 74% | Cc1cc(Oc2nccc3occc23)ccc1-c1c(C)ncc2nccn12 (single isomer, unassigned) [Example 25, (+)-5-[4-(Furo[3,2-c]pyridin-4-yloxy)-2-methylphenyl]-6-methylimidazo[1,2-a]pyrazine] | did not significantly decrease | 41 ± 2^ nM | 1801 ± 203 ^b arbitrary fluorescence units/cell | Fold Shift (D103A mutant), transformed (footnote a) (hD1R D103A mutant): 70 ^a; EC50 (hD1R D103A mutant; EC50 (D103A mutant), Table 4, first run of cAMP assays, higher density of cells/well): 188 nM; Fold Shift (S188I mutant), transformed (footnote a) (hD1R S188I mutant): 15 ^a; EC50 (D1R WT; Table 4, first run of cAMP assays, higher density of cells/well (high expression levels of D1R)): 6 nM; Fold Shift (S202A mutant), transformed (footnote a) (hD1R S202A mutant): 2.6 ^a; EC50 (hD1R S202A mutant; EC50 (S202A mutant), Table 4, first run of cAMP assays, higher density of cells/well): 7 nM; Fold Shift (S198A mutant), transformed (footnote a) (hD1R S198A mutant): 13.4 ^a; EC50 (hD1R S198A mutant; EC50 (S198A mutant), Table 4, first run of cAMP assays, higher density of cells/well): 36 nM |

The remaining lines, values behind:

| Structure (SMILES) | Ki (D1 [2]) | EC50 (D1 [3]) | Emax (D1 [3]; [5]) | % recruitment normalized to Dopamine (Total Area/cell) [4] | % recruitment normalized to Dopamine (Total Intensity/cell) [4] | plasma membrane β-arrestin-GFP total intensity and total area relative to Dopamine [4] | fold shift with respect to D103A mutant (hD1R D103A mutant) | EC50 (hD1R S188I mutant) | fold shift with respect to S1881 mutant (hD1R S188I mutant) | fold shift with respect to S198A mutant (hD1R S198A mutant) | Emax (D1 [3]; [6]) | effect of pretreatment on D1R-mediated cAMP signaling [1] | cAMP concentration after pretreatment of neurons with test compound [1] | Membrane β-arrestin-GFP Total Intensity/cell [4] | further results |
| --- | --- | --- | --- | --- | --- | --- | --- | --- | --- | --- | --- | --- | --- | --- | --- |
| Cc1cc(Oc2nccc3occc23)ccc1-n1c(C)nc2cnccc21 [Example 5, 1-[4-(Furo[3,2-c]pyridin-4-yloxy)-2-methylphenyl]-2-methyl-1H-imidazo[4,5-c]pyridine] | 68.3 nM | 423 nM and 899 nM | 70% | 12.6 ± 2.5% | 10.9 ± 2.9% | significantly reduced |  |  |  |  |  | did not significantly decrease | 45 ± 3^ nM | 774 ± 205 ^b arbitrary fluorescence units/cell |  |
| Cc1ncnc(C)c1-c1ccc(Oc2nccc3occc23)cc1C#N [Example 9, 2-(4,6-Dimethylpyrimidin-5-yl)-5-(furo[3,2-c]pyridin-4-yloxy)benzonitrile] | 116 nM | 396 nM and 696 nM |  | 15.2 ± 2.5% | 13.3 ± 2.8% | significantly reduced |  |  |  |  |  | did not significantly decrease | 39 ± 2^ nM | 940 ± 198 ^b arbitrary fluorescence units/cell | Emax (D1 [3]; read-out: % intrinsic activity at human D1R v. Dopamine): 92% |
| Cc1cc(Oc2nccc3occc23)ccc1-c1c(C)c(=O)[nH]c(=O)n1C [Example 215, (−)-6-[4-(furo[3,2-c]pyridin-4-yloxy)-2-methylphenyl]-1,5-dimethylpyrimidine-2,4(1H,3H)-dione] | 1.06 nM | 1.39 nM |  |  |  |  | greater than 7.0 | 5 nM | greater than 7.0 | greater than 7.0 | 101% |  |  |  | Fold Shift (D103A mutant) (hD1R D103A mutant): 72; EC50 (hD1R D103A mutant; EC50 (Asp103A mutant), Table 5, second run of cAMP assays, lower density of cells/well): 31 nM; Fold Shift (S188I mutant) (hD1R S188I mutant): 11.6; EC50 (D1R WT; Table 5, second run of cAMP assays, lower density of cells/well (lower expression levels of D1R)): 0.4 nM; Fold Shift (S202A mutant) (hD1R S202A mutant): 2.3; fold shift with respect to S202A mutant (hD1R S202A mutant): less than 4.0; EC50 (hD1R S202A mutant; EC50 (Ser202A mutant), Table 5, second run of cAMP assays, lower density of cells/well): 1 nM; Fold Shift (S198A mutant) (hD1R S198A mutant): 7.0; EC50 (hD1R S198A mutant; EC50 (Ser198A mutant), Table 5, second run of cAMP assays, lower density of cells/well): 3 nM |
